Assay results published in ChEMBL document CHEMBL1201862, “PubChem BioAssay data set” (2004).
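Interpolation was linear, between the two tested concentrations surrounding the appropriate level; five concentrations were tested over 48 hours in 96-well plates. The concentration for 50% growth inhibition is given as GI50.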 The source made the active and inactive calls. Cut-off read from the data, not from the text of the source: active = GI50 up to about 1.1 µM and inactive = higher.

Tests used:
Assay in all cases: NCI-60 cell line screen, 48 h
[1] = tested on: COLO 205
[2] = tested on: OVCAR-8
[3] = tested on: U-251
[4] = tested on: SK-OV-3
[5] = tested on: EKVX
[6] = tested on: M19-MEL
[7] = tested on: MOLT-4
[8] = tested on: RXF 631
[9] = tested on: M14
[10] = tested on: SF-539
[11] = tested on: RXF 393
[12] = tested on: LXFL 529
[13] = tested on: HCT-116
[14] = tested on: IGROV-1
[15] = tested on: HOP-62
[16] = tested on: KM-20L2
[17] = tested on: HT-29
[18] = tested on: CAKI-1
[19] = tested on: SN12C
[20] = tested on: NCI-H522
[21] = tested on: 786-0
[22] = tested on: NCI-H23
[23] = tested on: SF-268
[24] = tested on: HOP-18
[25] = tested on: NCI-H460
[26] = tested on: HCT-15
[27] = tested on: UACC-62
[28] = tested on: TK-10
[29] = tested on: HOP-92
[30] = tested on: XF498
[31] = tested on: UO-31
[32] = tested on: SK-MEL-28
[33] = tested on: ACHN
[34] = tested on: DMS-114
[35] = tested on: A498
[36] = tested on: DMS-273
[37] = tested on: LOX IMVI
[38] = tested on: SF-295
[39] = tested on: SR
[40] = tested on: SK-MEL-2
[41] = tested on: UACC-257
[42] = tested on: HL-60
[43] = tested on: A549
[44] = tested on: K562
[45] = tested on: SNB-75
[46] = tested on: SNB-19
[47] = tested on: SNB-78
[48] = tested on: OVCAR-3
[49] = tested on: SK-MEL-5
[50] = tested on: CCRF-CEM
[51] = tested on: SW-620
[52] = tested on: OVCAR-4
[53] = tested on: OVCAR-5
[54] = tested on: RPMI-8226
[55] = tested on: KM12
[56] = tested on: NCI-H226
[57] = tested on: Malme-3M

Structure (SMILES): CCc1nc2ccccc2c(=O)n1/N=C(\N=N\c1ccc(Cl)cc1)c1ccccc1Cl
- GI50 [1]: 52.6 µM (inactive)
- GI50 [2]: 39.5 µM (inactive)
- GI50 [3]: 49.7 µM (inactive)
- GI50 [4]: 60.7 µM (inactive)
- GI50 [5]: 2.11 µM (inactive)
- GI50 [6]: > 100 µM (inactive)
- GI50 [7]: 26.1 µM (inactive)
- GI50 [8]: > 100 µM (inactive)
- GI50 [9]: 68.5 µM (inactive)
- GI50 [10]: 47.4 µM (inactive)
- GI50 [11]: 21.1 µM (inactive)
- GI50 [12]: 23.4 µM (inactive)
- GI50 [13]: 26.8 µM (inactive)
- GI50 [14]: > 100 µM (inactive)
- GI50 [15]: 39.3 µM (inactive)
- GI50 [16]: 48.3 µM (inactive)
- GI50 [17]: 50.9 µM (inactive)
- GI50 [18]: 65.5 µM (inactive)
- GI50 [19]: 57.3 µM (inactive)
- GI50 [20]: > 10 µM (inactive)
- GI50 [21]: 67.8 µM (inactive)
- GI50 [22]: 82.8 µM (inactive)
- GI50 [23]: 28 µM (inactive)
- GI50 [24]: 20 µM (inactive)
- GI50 [25]: 50.4 µM (inactive)
- GI50 [26]: 68.2 µM
- GI50 [27]: > 100 µM (inactive)
- GI50 [28]: 82.8 µM (inactive)
- GI50 [29]: 20.2 µM (inactive)
- GI50 [30]: 18.5 µM (inactive)
- GI50 [31]: 18.2 µM (inactive)
- GI50 [32]: 23.5 µM (inactive)
- GI50 [33]: 43.2 µM (inactive)
- GI50 [34]: 20.1 µM (inactive)
- GI50 [35]: 51.9 µM (inactive)
- GI50 [36]: 38.7 µM (inactive)
- GI50 [37]: 53.2 µM (inactive)
- GI50 [38]: 54.7 µM (inactive)

Structure (SMILES): CCCCC1(C)C=C/C(=C2/C(=O)O/C(=C\C(=O)O)C2=O)O1 (centres undefined)
- GI50 [1]: > 100 µM (inactive)
- GI50 [39]: > 100 µM (inactive)
- GI50 [2]: > 100 µM (inactive)
- GI50 [40]: > 100 µM (inactive)
- GI50 [41]: > 100 µM (inactive)
- GI50 [3]: > 100 µM (inactive)
- GI50 [4]: > 100 µM (inactive)
- GI50 [5]: > 100 µM (inactive)
- GI50 [6]: > 100 µM (inactive)
- GI50 [42]: > 100 µM (inactive)
- GI50 [7]: > 100 µM (inactive)
- GI50 [43]: > 100 µM (inactive)
- GI50 [44]: > 100 µM (inactive)
- GI50 [8]: > 100 µM (inactive)
- GI50 [9]: > 100 µM (inactive)
- GI50 [10]: > 100 µM (inactive)
- GI50 [12]: > 100 µM (inactive)
- GI50 [13]: > 100 µM (inactive)
- GI50 [45]: > 100 µM (inactive)
- GI50 [14]: > 100 µM (inactive)
- GI50 [15]: > 100 µM (inactive)
- GI50 [16]: > 100 µM (inactive)
- GI50 [46]: > 100 µM (inactive)
- GI50 [47]: > 100 µM (inactive)
- GI50 [17]: > 100 µM (inactive)
- GI50 [19]: > 100 µM (inactive)
- GI50 [21]: > 100 µM (inactive)
- GI50 [22]: > 100 µM (inactive)
- GI50 [24]: > 100 µM (inactive)
- GI50 [25]: > 100 µM (inactive)
- GI50 [26]: > 100 µM
- GI50 [48]: > 100 µM (inactive)
- GI50 [27]: > 100 µM (inactive)
- GI50 [28]: > 100 µM (inactive)
- GI50 [49]: > 100 µM (inactive)
- GI50 [50]: > 100 µM (inactive)
- GI50 [30]: > 100 µM (inactive)
- GI50 [51]: > 100 µM (inactive)
- GI50 [31]: > 100 µM (inactive)
- GI50 [52]: > 100 µM (inactive)
- GI50 [53]: > 100 µM (inactive)
- GI50 [54]: > 100 µM (inactive)
- GI50 [32]: > 100 µM (inactive)
- GI50 [55]: > 100 µM (inactive)
- GI50 [33]: > 100 µM (inactive)
- GI50 [35]: > 100 µM (inactive)
- GI50 [56]: > 100 µM (inactive)
- GI50 [36]: > 100 µM (inactive)
- GI50 [37]: > 100 µM (inactive)
- GI50 [38]: > 100 µM (inactive)
- GI50 [57]: > 100 µM (inactive)
